From patent US20170101432A1, “CRYSTALLINE 3',5'-CYCLIC DIGUANYLIC ACID” (Yamasa Corporation, priority 2014, published 2017)

Assay: Stability: storage at 50° C. in a desiccator containing saturated saline, HPLC purity measured
Assay type: physicochemical
Details: for relative residual ratio: storage at 50° C., saturated saline desiccator
Experimental: Note that the high performance liquid chromatography method was performed under the following condition. Column: Hydrosphere C18 (product of YMC Co., Ltd.) Eluate: 0.1M TEA-P (pH 6.0) Detection method: detection by UV 260 nm The crystals of 3′,5′-cyclic diguanylic acid of the present invention and the co-crystals with cobalt and the co-crystals with magnesium of Reference Examples were stored at 50° C. in a desiccator containing saturated saline, and HPLC purity of each of them was measured on days 0, 7, 31, 84 and 167 after the start of storage. The result of measurement of HPLC purity (%) is shown in Table 5 below and relative residual ratios (%) on each day for measurement after the start of storage, taking the purity of day 0 of measurement as 100%, are shown in Table 6.

[1] = day 0, purity of day 0 taken as 100%
[2] = day 0 after the start of storage at 50° C. in a desiccator containing saturated saline
[3] = day 7, purity of day 0 taken as 100%
[4] = day 7 of storage at 50° C. in a desiccator containing saturated saline
[5] = day 31, purity of day 0 taken as 100%
[6] = day 31 of storage at 50° C. in a desiccator containing saturated saline
[7] = day 84, purity of day 0 taken as 100%
[8] = day 84 of storage at 50° C. in a desiccator containing saturated saline
[9] = day 167, purity of day 0 taken as 100%
[10] = day 167 of storage at 50° C. in a desiccator containing saturated saline

relative residual ratio [1] | HPLC purity [2] | relative residual ratio [3] | HPLC purity [4] | relative residual ratio [5] | HPLC purity [6] | relative residual ratio [7] | HPLC purity [8] | relative residual ratio [9] | HPLC purity [10] | decrease rate of HPLC purity (after storing at 50° C. for 167 days in a desiccator containing saturated saline) | SMILES
100% | 99.9% | 100% | 99.9% | 99.8% | 99.7% | 99.8% | 99.7% | 99.6% | 99.4% |  | Nc1nc2c(ncn2C2OC3COP(=O)(O)OC4C(COP(=O)(O)OC3C2O)OC(n2cnc3c(=O)[nH]c(N)nc32)C4O)c(=O)[nH]1 (stereo not shown) [Co, 3′,5′-cyclic diguanylic acid]
100% | 99.8% | 100% | 99.7% | 99.8% | 99.6% | 100.0% | 99.8% | 99.5% | 99.3% |  | Nc1nc2c(ncn2C2OC3COP(=O)(O)OC4C(COP(=O)(O)OC3C2O)OC(n2cnc3c(=O)[nH]c(N)nc32)C4O)c(=O)[nH]1 (stereo not shown) [Mg, 3′,5′-cyclic diguanylic acid]
100% | 99.0% | 100.1% | 99.1% | 99.6% | 98.6% | 99.9% | 98.9% | 100.0% | 98.9% | less than 1% | Nc1nc2c(ncn2[C@@H]2O[C@@H]3COP(=O)(O)OC4C(O)[C@H](n5cnc6c(=O)[nH]c(N)nc65)O[C@@H]4COP(=O)(O)OC3C2O)c(=O)[nH]1 (stereo partly shown) [Present Invention, 3′,5′-cyclic diguanylic acid]
